Test results taken from US7998950B2, “Antiviral compounds” (Gilead Sciences, Inc., priority 2008, dated 2011).

test system: HIV-IIIb; assay: Antiviral assay in MT-2 cells infected with HIV-IIIb; assay type: cell-based; conditions: Human immunodeficiency virus 1, IIIB, MT2, 120 h, MT-2 cells infected with HIV-IIIb, m.o.i. 0.01, 10% FBS, 5 days at 37° C., CellTiter-Glo chemiluminescence; read-out: EC50 in MT-2 cells

Q: Which EC50 does the source give for O=C(NCCCN1CCCC1=O)c1c(O)c2ncc(Cc3ccc(F)cc3)c3c2n(c1=O)CC(F)(F)CN3 [Example 161] here?
A: 4.2 nM

Q: With CNC(=O)C1=Cn2c(=O)c(C(=O)NCCC#N)c(O)c3ncc(Cc4ccc(F)cc4)c(c32)O1 [A-88] as the compound, how does the EC50 read?
A: 18 nM

Q: For CNC(=O)c1c(O)c2ncc(Cc3ccc(F)cc3)c3c2n(c1=O)C=C(C(=O)NC1CC1)O3 [A-85], which EC50 is on record?
A: 4 nM

Q: With CNC(=O)c1c(O)c2ncc(Cc3ccc(F)cc3)c3c2n(c1=O)C=C(C(=O)NCC1(O)CC1)O3 [Example 133] as the compound, how does the EC50 read?
A: 7 nM

Q: How did the EC50 turn out when O=C(NCCN1CCNC1=O)c1c(O)c2ncc(Cc3ccc(F)cc3)c3c2n(c1=O)CCO3 [compound 14] was run?
A: 5.5 nM

Q: With COCCNC(=O)c1c(O)c2ncc(Cc3ccc(F)cc3)c3c2n(c1=O)CC(CO)O3 (centres unmarked) [A-27] as the compound, how does the EC50 read?
A: 4 nM

Q: Which EC50 does the source give for COCCNC(=O)c1c(O)c2ncc(Cc3ccc(F)cc3)c3c2n(c1=O)C=C(C(=O)N1CCN(CC(F)(F)F)CC1)O3 [Example 110] here?
A: 27.4 nM

Q: For O=C(NCCN1CCOCC1)c1c(O)c2ncc(Cc3ccc(F)cc3)c3c2n(c1=O)CCN3 [compound 35], which EC50 is on record?
A: 5.5 nM

Q: With C[C@@H](CO)NC(=O)c1c(O)c2ncc(Cc3ccc(F)cc3)c3c2n(c1=O)CC(F)(F)CN3 [A-13] as the compound, how does the EC50 read?
A: 6.5 nM

Q: How did the EC50 turn out when CC(C)(C)NC(=O)C1=Cn2c(=O)c(C(=O)NCCO)c(O)c3ncc(Cc4ccc(F)cc4)c(c32)O1 [Example 139] was run?
A: 2.4 nM

Q: Which EC50 does the source give for CNC(=O)C1=Cn2c(=O)c(C(=O)NCCOC)c(O)c3ncc(Cc4ccc(F)cc4)c(c32)O1 [A-87] here?
A: 3.6 nM

Q: How did the EC50 turn out when CNC(=O)c1c(O)c2ncc(Cc3ccc(F)cc3)c3c2n(c1=O)C[C@H](C(=O)NC)O3 [A-50] was run?
A: 6.8 nM

Q: CNC(=O)c1c(O)c2ncc(Cc3ccc(F)cc3)c3c2n(c1=O)C=C(C(=O)NCC(C)(C)NC(=O)c1nnc(C)o1)O3 [Example 122] was tested. Which EC50 did it give?
A: 64 nM

Q: With CC(C)N1CCN(CCNC(=O)c2c(O)c3ncc(Cc4ccc(F)cc4)c4c3n(c2=O)CCO4)CC1 [compound 16] as the compound, how does the EC50 read?
A: 12 nM

Q: How did the EC50 turn out when CC1(C)Cn2c(=O)c(C(=O)NCCO)c(O)c3ncc(Cc4ccc(F)cc4)c1c32 [compound 59] was run?
A: 85 nM

Q: For CNC(=O)C(=O)NC[C@@H]1Cn2c(=O)c(C(=O)NC)c(O)c3ncc(Cc4ccc(F)cc4)c(c32)O1 [Example 199], which EC50 is on record?
A: 6.7 nM

Q: For CC(C)(CO)NC(=O)C1=Cn2c(=O)c(C(=O)NC3CC3)c(O)c3ncc(Cc4ccc(F)cc4)c(c32)O1 [Example 128], which EC50 is on record?
A: 7.1 nM

Q: Which EC50 does the source give for [2H]C([2H])([2H])NC(=O)c1c(O)c2ncc(Cc3ccc(F)cc3)c3c2n(c1=O)C=C(C(=O)NCC)O3 [Example 116] here?
A: 2.5 nM

Q: Which EC50 does the source give for CNC(=O)c1c(O)c2ncc(Cc3ccc(F)cc3)c3c2n(c1=O)C[C@@H](Cn1ccnc1C(=O)NC)O3 [Example 205] here?
A: 1 nM

Q: For CNC(=O)c1c(O)c2ncc(Cc3ccc(F)cc3)c3c2n(c1=O)C=C(C(=O)NCC(C)(C)N(C)C)O3 [Example 119], which EC50 is on record?
A: 2.4 nM

Q: With O=C(NC1CC1)c1c(O)c2ncc(Cc3ccc(F)cc3)c3c2n(c1=O)CCN3 [compound 36] as the compound, how does the EC50 read?
A: 3.5 nM

Q: CNC(=O)c1c(O)c2ncc(Cc3ccc(F)cc3)c3c2n(c1=O)C=C(C(=O)N1CC(F)(F)C1)O3 [A-92] was tested. Which EC50 did it give?
A: 21 nM

Q: With O=C(NCCO)c1c(O)c2ncc(Cc3ccc(F)cc3)c3c2n(c1=O)CCCO3 [compound 24] as the compound, how does the EC50 read?
A: 4.6 nM

Q: How did the EC50 turn out when CNC(=O)c1c(O)c2ncc(Cc3ccc(F)cc3)c3c2n(c1=O)C[C@@H](CN(C)CCO)O3 [Example 202] was run?
A: 12 nM

Q: How did the EC50 turn out when CNC(=O)c1c(O)c2ncc(Cc3ccc(F)cc3)c3c2n(c1=O)C[C@@H](CN(C)C(C)(C)C)O3 [Example 201] was run?
A: 2.8 nM

Q: For O=C(NCCN(CCO)CCO)c1c(O)c2ncc(Cc3ccc(F)cc3)c3c2n(c1=O)CCO3 [compound 15], which EC50 is on record?
A: 13 nM

Q: Which EC50 does the source give for CNC(=O)[C@@H]1Cn2c(=O)c(C(=O)NCCO)c(O)c3ncc(Cc4ccc(F)cc4)c(c32)O1 [Example 176] here?
A: 23.2 nM

Q: With CC(C)(CO)CNC(=O)c1c(O)c2ncc(Cc3ccc(F)cc3)c3c2n(c1=O)CC(F)(F)CN3 [Example 145] as the compound, how does the EC50 read?
A: 9 nM

Q: COCCNC(=O)c1c(O)c2ncc(Cc3ccc(F)cc3)c3c2n(c1=O)C=C(C(=O)N1CCOCC1(C)C)O3 [Example 108] was tested. Which EC50 did it give?
A: 7.5 nM

Q: With COCC1Cn2c(=O)c(C(=O)NCCO)c(O)c3ncc(Cc4ccc(F)cc4)c(c32)O1 (centres unmarked) [A-31] as the compound, how does the EC50 read?
A: 1.5 nM

Q: How did the EC50 turn out when CNC(=O)c1c(O)c2ncc(Cc3ccc(F)cc3)c3c2n(c1=O)C[C@@H](C(=O)NCC(C)(C)C#N)O3 [Example 175] was run?
A: 2.4 nM

Q: How did the EC50 turn out when COCCNC(=O)c1c(O)c2ncc(Cc3ccc(F)cc3)c3c2n(c1=O)C=C(C(=O)NCCN1CCCC1)O3 [Example 109] was run?
A: 37.5 nM

Q: Which EC50 does the source give for CNC(=O)c1c(O)c2ncc(Cc3ccc(F)cc3)c3c2n(c1=O)C=C(C(=O)NCC1(O)CCCCC1)O3 [Example 142] here?
A: 1.9 nM

Q: How did the EC50 turn out when CCNC(=O)C1=Cn2c(=O)c(C(=O)NCCOC)c(O)c3ncc(Cc4ccc(F)cc4)c(c32)O1 [Example 104] was run?
A: 3 nM

Q: For CNC(=O)c1c(O)c2ncc(Cc3ccc(F)cc3)c3c2n(c1=O)C[C@@H](CNC(C)=O)O3 [Example 200], which EC50 is on record?
A: 1.1 nM

Q: How did the EC50 turn out when CNC(=O)c1c(O)c2ncc(Cc3ccc(F)cc3)c3c2n(c1=O)C=C(C(=O)NCC(C)(C)N)O3 [Example 123] was run?
A: 35 nM

Q: Which EC50 does the source give for CNC(=O)c1c(O)c2ncc(Cc3ccc(F)cc3)c3c2n(c1=O)C=C(C(=O)NCCOC(F)(F)F)O3 [Example 141] here?
A: 3.7 nM

Q: CC(C)(C#N)CNC(=O)c1c(O)c2ncc(Cc3ccc(F)cc3)c3c2n(c1=O)CC(F)(F)CN3 [Example 154] was tested. Which EC50 did it give?
A: 6 nM

Q: For COCCNC(=O)c1c(O)c2ncc(Cc3ccc(F)cc3)c3c2n(c1=O)C=C(C(=O)NCC1(O)CC1)O3 [Example 106], which EC50 is on record?
A: 6 nM

Q: How did the EC50 turn out when CNC(=O)c1c(O)c2ncc(Cc3ccc(F)cc3)c3c2n(c1=O)C=C(C(=O)NCC(C)(C)N1CCOCC1)O3 [Example 117] was run?
A: 14 nM

Q: How did the EC50 turn out when COCCNC(=O)c1c(O)c2ncc(Cc3ccc(F)cc3)c3c2n(c1=O)CCCN3 [compound 52] was run?
A: 8 nM

Q: CNC(=O)c1c(O)c2ncc(Cc3ccc(F)cc3)c3c2n(c1=O)C=C(C(=O)NC(C)(C)CNC(=O)OC(C)(C)C)O3 [Example 120] was tested. Which EC50 did it give?
A: 19 nM

Q: For O=C(NCCN1CCOCC1)c1c(O)c2ncc(Cc3ccc(F)cc3)c3c2n(c1=O)CCO3 [compound 13], which EC50 is on record?
A: 7 nM

Q: How did the EC50 turn out when CNC(=O)c1c(O)c2ncc(Cc3ccc(F)cc3)c3c2n(c1=O)CC(F)(F)CN3C [Example 163] was run?
A: 18.5 nM

Q: Which EC50 does the source give for CNC(=O)c1c(O)c2ncc(Cc3ccc(F)cc3)c3c2n(c1=O)C=C(C(=O)NC(C)(C)CO)O3 [Example 126] here?
A: 3.3 nM

Q: With O=C(NCCCN1CCCC1)c1c(O)c2ncc(Cc3ccc(F)cc3)c3c2n(c1=O)CC(F)(F)CN3 [Example 151] as the compound, how does the EC50 read?
A: 23 nM

Q: For CNC(=O)c1c(O)c2ncc(Cc3ccc(F)cc3)c3c2n(c1=O)C[C@@H](Cn1ccnc1)O3 [Example 183], which EC50 is on record?
A: 1.8 nM

Q: How did the EC50 turn out when N#CCCNC(=O)c1c(O)c2ncc(Cc3ccc(F)cc3)c3c2n(c1=O)C=C(C(=O)N1CCCCC1)O3 [Example 132] was run?
A: 37.4 nM

Q: How did the EC50 turn out when N#CCCNC(=O)c1c(O)c2ncc(Cc3ccc(F)cc3)c3c2n(c1=O)CC(F)(F)CN3 [A-9] was run?
A: 4 nM

Q: CCNC(=O)c1c(O)c2ncc(Cc3ccc(F)cc3)c3c2n(c1=O)C[C@@H](C(=O)NC)O3 [Example 165] was tested. Which EC50 did it give?
A: 8 nM

Q: Which EC50 does the source give for CNC(=O)c1c(O)c2ncc(Cc3ccc(F)cc3)c3c2n(c1=O)C=C(C(=O)N1CCOCC1(C)C)O3 [Example 107] here?
A: 25 nM

Q: How did the EC50 turn out when CCNC(=O)C1=Cn2c(=O)c(C(=O)NCCC#N)c(O)c3ncc(Cc4ccc(F)cc4)c(c32)O1 [Example 112] was run?
A: 11.7 nM

Q: With CNC(=O)c1c(O)c2ncc(Cc3ccc(F)c(Cl)c3)c3c2n(c1=O)C=C(C(=O)NCC(C)(C)C#N)O3 [Example 118] as the compound, how does the EC50 read?
A: 0.7 nM

Q: For O=C(NCCO)c1c(O)c2ncc(Cc3ccc(F)cc3)c3c2n(c1=O)CC(F)(F)CN3 [compound 79], which EC50 is on record?
A: 7 nM

Q: O=C(NCCCO)c1c(O)c2ncc(Cc3ccc(F)cc3)c3c2n(c1=O)CC(F)(F)CN3 [A-15] was tested. Which EC50 did it give?
A: 4 nM

Q: With CNC(=O)c1c(O)c2ncc(Cc3ccc(F)cc3)c3c2n(c1=O)CC(C(=O)N(C)C)O3 (centres unmarked) [A-35] as the compound, how does the EC50 read?
A: 5.7 nM

Q: How did the EC50 turn out when O=C(NCCO)c1c(O)c2ncc(Cc3ccc(F)cc3)c3c2n(c1=O)CCN3 [compound 30] was run?
A: 7 nM

Q: CNC(=O)c1c(O)c2ncc(Cc3ccc(F)cc3)c3c2n(c1=O)CC(CO)O3 (centres unmarked) [A-25] was tested. Which EC50 did it give?
A: 5.5 nM

same assay, conditions: Human immunodeficiency virus 1, IIIB, MT2, 120 h, read-out: EC50 in MT-2 cells (nM)

Q: With CNC(=O)c1c(O)c2ncc(Cc3ccc(F)cc3)c3c2n(c1=O)C[C@@H](CN(C)S(=O)(=O)N(C)C)O3 [Example 210] as the compound, how does the EC50 read?
A: 5 nM

Q: For CNC(=O)c1c(O)c2ncc(Cc3ccc(F)cc3)c3c2n(c1=O)C=C(c1nnc(C)o1)O3 [Example 130], which EC50 is on record?
A: 4.6 nM

same assay, conditions: MT-2 cells infected with HIV-IIIb, m.o.i. 0.01, 10% FBS, 5 days at 37° C., CellTiter-Glo chemiluminescence; listed as A-177; read-out: EC50 in MT-2 cells

Q: CCN(CC)C(=O)C1=Cn2c(=O)c(C(=O)NC)c(O)c3ncc(Cc4ccc(F)cc4)c(c32)O1 [Example 125] was tested. Which EC50 did it give?
A: 5.5 nM

same assay, conditions: MT-2 cells infected with HIV-IIIb, m.o.i. 0.01, 10% FBS, 5 days at 37° C., CellTiter-Glo chemiluminescence; read-out: EC50 in MT-2 cells

Q: For CCN(CC)C(=O)C1=Cn2c(=O)c(C(=O)NC)c(O)c3ncc(Cc4ccc(F)cc4)c(c32)O1 [A-91], which EC50 is on record?
A: 10 nM
